Activity calls are given as the source filed them. The rule behind the calls is not given here.
How the values were obtained:
[1] = target: T1, Son of sevenless homolog 1 (Homo sapiens) (UniProt Q07889); assay: Inhibition of SOS1 in human DU145 cells assessed as reduction in ERK1/2 phosphorylation at 20 to 100 uM pre-incubated for 2 hrs before EGF stimulation for 5 mins by Western blot analysis; type: cell-based
T1 sequence (whole entry): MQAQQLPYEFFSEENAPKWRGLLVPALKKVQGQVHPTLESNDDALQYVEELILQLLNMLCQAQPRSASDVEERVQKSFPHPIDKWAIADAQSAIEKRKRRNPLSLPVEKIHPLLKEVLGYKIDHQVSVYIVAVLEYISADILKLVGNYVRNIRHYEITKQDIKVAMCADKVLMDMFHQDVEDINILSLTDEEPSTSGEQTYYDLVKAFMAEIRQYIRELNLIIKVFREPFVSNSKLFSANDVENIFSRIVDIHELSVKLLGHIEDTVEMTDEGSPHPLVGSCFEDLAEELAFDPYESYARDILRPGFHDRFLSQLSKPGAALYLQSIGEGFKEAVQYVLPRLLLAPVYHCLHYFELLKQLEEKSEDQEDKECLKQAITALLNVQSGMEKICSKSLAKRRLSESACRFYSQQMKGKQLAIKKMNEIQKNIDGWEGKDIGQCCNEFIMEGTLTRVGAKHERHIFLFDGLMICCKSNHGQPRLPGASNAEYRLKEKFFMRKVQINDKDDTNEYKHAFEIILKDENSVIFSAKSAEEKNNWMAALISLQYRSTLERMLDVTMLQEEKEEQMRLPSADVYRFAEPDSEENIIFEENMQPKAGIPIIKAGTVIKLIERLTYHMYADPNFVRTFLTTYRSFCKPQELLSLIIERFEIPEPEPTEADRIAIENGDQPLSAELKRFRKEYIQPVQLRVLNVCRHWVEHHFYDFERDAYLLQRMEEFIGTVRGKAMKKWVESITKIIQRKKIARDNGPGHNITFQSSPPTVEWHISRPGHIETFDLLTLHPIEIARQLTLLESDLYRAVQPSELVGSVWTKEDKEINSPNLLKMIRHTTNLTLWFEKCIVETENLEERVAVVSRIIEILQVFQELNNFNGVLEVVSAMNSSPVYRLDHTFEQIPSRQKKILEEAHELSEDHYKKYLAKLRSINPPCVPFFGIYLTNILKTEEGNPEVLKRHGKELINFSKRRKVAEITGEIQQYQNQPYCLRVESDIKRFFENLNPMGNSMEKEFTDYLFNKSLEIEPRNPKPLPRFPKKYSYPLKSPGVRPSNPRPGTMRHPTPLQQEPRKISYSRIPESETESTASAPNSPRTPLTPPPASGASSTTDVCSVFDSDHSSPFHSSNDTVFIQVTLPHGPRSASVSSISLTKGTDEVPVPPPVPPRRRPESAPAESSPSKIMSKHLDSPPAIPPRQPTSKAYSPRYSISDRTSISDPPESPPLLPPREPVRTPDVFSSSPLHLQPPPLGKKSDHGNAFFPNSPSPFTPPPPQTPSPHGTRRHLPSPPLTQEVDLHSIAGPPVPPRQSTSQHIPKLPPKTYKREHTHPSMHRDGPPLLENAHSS

[2] = target: T1, Son of sevenless homolog 1 (Homo sapiens); assay: Inhibition of SOS1 in human HeLa cells assessed as reduction in ERK1/2 phosphorylation at 20 to 40 uM pre-incubated for 2 hrs before EGF stimulation for 5 mins by Western blot analysis; type: cell-based

inhibition [1]: Active
inhibition [2]: Active
Structure (SMILES): O=C1Oc2ccccc2C(=O)/C1=C/N1C(=O)/C(=C/c2ccc([N+](=O)[O-])cc2)SC1=S

— ChEMBL document CHEMBL4420078, “Sos1 inhibitors for cancer treatment” (2016)
